Reference: patent US12023333B2, “Phenyl-sulfamoyl.benzoyc acids as ERAP1 modulators” (GREY WOLF THERAPEUTICS LIMITED, priority 2019, dated 2024)

Molecular target: T1, Purified ERAP1(37-941)-10His (ERAP1) (Homo sapiens, UniProt Q9NZ08)
T1 construct: Purified ERAP1(37-941)-10His (ERAP1); 10His (C)
Experiment: ERAP1 mediated hydrolysis of an amide substrate measured in a biochemical system (10-mer decapeptide substrate)
Settings: 10-mer substrate, 23° C. for 1 h, excitation 279 nm and emission 355 nm; read-out: IC50 vs Decapeptide WRVYEKC(Dnp)ALK-acid (where Dnp is Dinitrophenyl maleimide) (10-mer)
Method: Biological Assay 1: ERAP1 Mediated Hydrolysis of an Amide Substrate Measured in a Biochemical System
1× Assay buffer (AB): 25 mM Bis-tris propane, 0.05% w/v Hydroxypropylmethylcellulose pH 7.75 made with Optima grade water
Decapeptide WRVYEKC(Dnp)ALK-acid (where Dnp is Dinitrophenyl maleimide) (10-mer) L-Leucine 7-amido-4-methylcoumarin (L-AMC)
12.5 μL ERAP1 enzyme in 1×AB was combined with 250 nL test compound in DMSO. 12.5 μL of either 240 μM L-AMC in 1×AB or 100 μM 10-mer in 1×AB was added to the reaction and incubated at 23° C. for 1 h. For detection, plates were read at excitation 365 nm and emission 442 nm (L-AMC) or excitation 279 nm and emission 355 nm (10-mer). Compound IC50 was determined using a 4 parameter equation.

T1 sequence (Q9NZ08 37-941): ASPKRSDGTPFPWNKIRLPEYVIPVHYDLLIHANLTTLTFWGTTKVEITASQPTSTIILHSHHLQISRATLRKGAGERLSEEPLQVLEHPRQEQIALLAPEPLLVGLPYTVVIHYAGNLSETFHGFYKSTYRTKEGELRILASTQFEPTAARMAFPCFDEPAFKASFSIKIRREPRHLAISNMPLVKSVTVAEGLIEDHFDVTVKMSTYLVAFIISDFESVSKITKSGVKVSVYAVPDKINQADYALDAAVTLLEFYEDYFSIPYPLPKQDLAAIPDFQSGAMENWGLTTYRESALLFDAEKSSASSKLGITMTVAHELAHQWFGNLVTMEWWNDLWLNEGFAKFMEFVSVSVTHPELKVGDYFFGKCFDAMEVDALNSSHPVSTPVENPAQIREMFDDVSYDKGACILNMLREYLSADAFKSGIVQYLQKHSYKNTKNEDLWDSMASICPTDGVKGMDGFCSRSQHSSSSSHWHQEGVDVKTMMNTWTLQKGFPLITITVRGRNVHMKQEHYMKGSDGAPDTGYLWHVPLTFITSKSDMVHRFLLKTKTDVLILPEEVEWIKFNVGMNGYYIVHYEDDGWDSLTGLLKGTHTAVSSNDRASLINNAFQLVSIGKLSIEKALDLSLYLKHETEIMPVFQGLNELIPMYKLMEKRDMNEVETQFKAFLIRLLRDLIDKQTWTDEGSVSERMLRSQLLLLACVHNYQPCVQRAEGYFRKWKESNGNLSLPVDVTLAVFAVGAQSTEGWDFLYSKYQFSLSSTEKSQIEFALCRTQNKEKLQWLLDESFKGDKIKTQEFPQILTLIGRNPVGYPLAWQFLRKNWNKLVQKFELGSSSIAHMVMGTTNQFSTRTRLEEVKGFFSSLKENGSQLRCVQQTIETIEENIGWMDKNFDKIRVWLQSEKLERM

`COc1ccc(C(=O)O)cc1S(=O)(=O)Nc1cc(C(F)(F)F)ccc1-c1cccc(C#N)c1` [Example 7, 3-(N-(3′-cyano-4-(trifluoromethyl)-[1,1′-biphenyl]-2-yl)sulfamoyl)-4-methoxybenzoic acid] and `COc1ccc(C(=O)O)cc1S(=O)(=O)Nc1cc(C(F)(F)F)ccc1-c1cccc(F)c1` [Example 15, 3-(N-(3′-fluoro-4-(trifluoromethyl)-[1,1′-biphenyl]-2-yl)sulfamoyl)-4-methoxybenzoic acid] cannot be ordered by IC50: under 500 nM for the first, under 500 nM for the second.

`CCc1ccc(C(=O)O)cc1S(=O)(=O)Nc1cc(C(F)(F)F)ccc1-c1ccc[nH]1` [Example 69, 3-(N-(2-(pyrrol-2-yl)-5-(trifluoromethyl)phenyl)sulfamoyl)-4-ethylbenzoic acid] and `CCc1ccc(C(=O)O)cc1S(=O)(=O)Nc1cc(C(F)(F)F)ccc1-c1cccs1` [Example 22, 4-ethyl-3-(N-(2-(thiophen-2-yl)-5-(trifluoromethyl)phenyl)sulfamoyl)benzoic acid] cannot be ordered by IC50: under 500 nM for the first, under 500 nM for the second.

`COc1ccc(C(=O)O)cc1S(=O)(=O)Nc1cc(C(F)(F)F)ccc1-n1cccn1` [Example 30, 3-(N-(2-(pyrazol-1-yl)-5-(trifluoromethyl)phenyl)sulfamoyl)-4-methoxybenzoic acid] and `COc1ccc(C(=O)O)cc1S(=O)(=O)Nc1cc(C(F)(F)F)ccc1-c1ccc(C)s1` [Example 79, 4-methoxy-3-(N-(2-(5-methylthiophen-2-yl)-5-(trifluoromethyl)phenyl)sulfamoyl)benzoic acid] cannot be ordered by IC50: under 5000 nM for the first, under 500 nM for the second.

First: COc1ccc(-c2ccc(C(F)(F)F)cc2NS(=O)(=O)c2cc(C(=O)O)ccc2OC)cc1 [Example 48, 4-methoxy-3-(N-(4′-methoxy-4-(trifluoromethyl)-[1,1′-biphenyl]-2-yl)sulfamoyl)benzoic acid]
Second: COc1ccc(C(=O)O)cc1S(=O)(=O)Nc1cc(C(F)(F)F)ccc1-c1ccc(Cl)s1 [Example 87, 3-(N-(2-(5-chlorothiophen-2-yl)-5-(trifluoromethyl)phenyl)sulfamoyl)-4-methoxybenzoic acid]
The IC50 of the first is higher: over 5000 nM for the first, under 500 nM for the second. The second is the more potent here.

`N#Cc1ccc(-c2ccsn2)c(NS(=O)(=O)c2cc(C(=O)O)ccc2C2CC2)c1` [Example 170, 3-(N-(5-cyano-2-(isothiazol-3-yl)phenyl)sulfamoyl)-4-cyclopropylbenzoic acid] and `N#Cc1cc(NS(=O)(=O)c2cc(C(=O)O)ccc2C2CC2)c(-c2ccsn2)cc1Cl` [Example 180, 3-(N-(4-chloro-5-cyano-2-(isothiazol-3-yl)phenyl)sulfamoyl)-4-cyclopropylbenzoic acid] cannot be ordered by IC50: under 500 nM for the first, under 500 nM for the second.

`O=C(O)c1ccc(C2CC2)c(S(=O)(=O)Nc2cc(-c3cn[nH]c3)ccc2-c2ccccn2)c1` [Example 145] and `N#Cc1cc(NS(=O)(=O)c2cc(C(=O)O)ccc2C2CC2)c(-c2ccccn2)cc1Cl` [Example 132, 3-(N-(4-chloro-5-cyano-2-(pyridin-2-yl)phenyl)sulfamoyl)-4-cyclopropylbenzoic acid] cannot be ordered by IC50: under 500 nM for the first, under 500 nM for the second.

`CS(=O)(=O)c1ccc(-c2ccc(F)s2)c(NS(=O)(=O)c2cc(C(=O)O)ccc2C2CC2)c1` [Example 116, 4-cyclopropyl-3-(N-(2-(5-fluorothiophen-2-yl)-5-(methylsulfonyl)-phenyl)sulfamoyl)benzoic acid] and `CS(=O)(=O)c1ccc(-c2ccc(Cl)s2)c(NS(=O)(=O)c2cc(C(=O)O)ccc2C2CC2)c1` [Example 123, 3-(N-(2-(5-chlorothiophen-2-yl)-5-(methylsulfonyl)phenyl)sulfamoyl)-4-cyclopropylbenzoic acid] cannot be ordered by IC50: under 500 nM for the first, under 500 nM for the second.

`COc1ccc(C(=O)O)cc1S(=O)(=O)Nc1cc(S(C)(=O)=O)ccc1-c1cccs1` [Example 78, 4-methoxy-3-(N-(5-(methylsulfonyl)-2-(thiophen-2-yl)phenyl)sulfamoyl) benzoic acid] and `COc1ccc(C(=O)O)cc1S(=O)(=O)Nc1cc(C#N)ccc1-c1ccccc1` [Example 60, 3-(N-(4-cyano-[1,1′-biphenyl]-2-yl)sulfamoyl)-4-methoxybenzoic acid] cannot be ordered by IC50: under 500 nM for the first, under 500 nM for the second.

`Cc1oncc1-c1ccc(-c2ccc(F)s2)c(NS(=O)(=O)c2cc(C(=O)O)ccc2C2CC2)c1` [Example 160, 4-cyclopropyl-3-(N-(2-(5-fluorothiophen-2-yl)-5-(5-methylisoxazol-4-yl)phenyl)sulfamoyl)benzoic acid] and `Cc1sncc1-c1ccc(-c2ccc(F)s2)c(NS(=O)(=O)c2cc(C(=O)O)ccc2C2CC2)c1` [Example 142, 4-cyclopropyl-3-(N-(2-(5-fluorothiophen-2-yl)-5-(5-methylisothiazol-4-yl)phenyl)sulfamoyl)benzoic acid] cannot be ordered by IC50: under 500 nM for the first, under 500 nM for the second.

`COc1ccc(C(=O)O)cc1S(=O)(=O)Nc1cc(C(F)(F)F)c(Cl)cc1-n1cccc1` [Example 158, 3-(N-(4-chloro-2-(pyrrol-1-yl)-5-(trifluoromethyl)phenyl)sulfamoyl)-4-methoxybenzoic acid] and `CCc1ccc(C(=O)O)cc1S(=O)(=O)Nc1cc(C(F)(F)F)ccc1-n1cccc1` [Example 36, 3-(N-(2-(pyrrol-1-yl)-5-(trifluoromethyl)phenyl)sulfamoyl)-4-ethylbenzoic acid] cannot be ordered by IC50: under 500 nM for the first, under 500 nM for the second.

`O=C(O)c1ccc(C2CC2)c(S(=O)(=O)Nc2cc(-n3cnnn3)c(Cl)cc2-c2ccccn2)c1` [Example 187, 3-(N-(4-chloro-2-(pyridin-2-yl)-5-(tetrazol-1-yl)phenyl)sulfamoyl)-4-cyclopropylbenzoic acid] and `Cn1ncnc1-c1cc(NS(=O)(=O)c2cc(C(=O)O)ccc2C2CC2)c(-c2ccccn2)cc1F` [Example 186, 4-cyclopropyl-3-(N-(4-fluoro-5-(1-methyl-1,2,4-triazol-5-yl)-2-(pyridin-2-yl)phenyl)sulfamoyl)benzoic acid] cannot be ordered by IC50: under 500 nM for the first, under 500 nM for the second.

`CCc1ccc(C(=O)O)cc1S(=O)(=O)Nc1cc(C#N)ccc1-c1ccc(C)s1` [Example 80, 3-(N-(5-cyano-2-(5-methylthiophen-2-yl)phenyl)sulfamoyl)-4-ethylbenzoic acid] and `CCc1ccc(C(=O)O)cc1S(=O)(=O)Nc1cc(C#N)ccc1-c1cccnc1` [Example 57, 3-(N-(5-cyano-2-(pyridin-3-yl)phenyl)sulfamoyl)-4-ethylbenzoic acid] cannot be ordered by IC50: under 500 nM for the first, under 500 nM for the second.

`O=C(O)c1ccc(C2CC2)c(S(=O)(=O)Nc2cc(-c3ccns3)ccc2-c2ccc(F)s2)c1` [Example 147, 4-cyclopropyl-3-(N-(2-(5-fluorothiophen-2-yl)-5-(isothiazol-5-yl)phenyl)sulfamoyl)benzoic acid] and `O=C(O)c1ccc(C2CC2)c(S(=O)(=O)Nc2cc(-c3ccns3)ccc2-c2cccs2)c1` [Example 146, 4-cyclopropyl-3-(N-(5-(isothiazol-5-yl)-2-(thiophen-2-yl)phenyl)sulfamoyl)benzoic acid] cannot be ordered by IC50: under 500 nM for the first, under 500 nM for the second.

`N#Cc1ccc(-c2ccc(C(F)(F)F)cc2NS(=O)(=O)c2cc(C(=O)O)ccc2C2CC2)s1` [Example 127, 3-(N-(2-(5-cyanothiophen-2-yl)-5-(trifluoromethyl)phenyl)sulfamoyl)-4-cyclopropylbenzoic acid] and `COc1ccc(C(=O)O)cc1S(=O)(=O)Nc1cc(C(F)(F)F)ccc1-c1ccccc1C#N` [Example 13, 3-(N-(2′-cyano-4-(trifluoromethyl)-[1,1′-biphenyl]-2-yl)sulfamoyl)-4-methoxybenzoic acid] cannot be ordered by IC50: under 500 nM for the first, under 5000 nM for the second.

`Cc1oncc1-c1ccc(-c2cccnc2)c(NS(=O)(=O)c2cc(C(=O)O)ccc2C2CC2)c1` [Example 167, 4-cyclopropyl-3-(N-(5-(5-methylisoxazol-4-yl)-2-(pyridin-3-yl)phenyl)sulfamoyl)benzoic acid] and `Cc1oncc1-c1cc(NS(=O)(=O)c2cc(C(=O)O)ccc2C2CC2)c(-n2cccc2)cc1Cl` [Example 205, 3-(N-(4-chloro-5-(5-methylisoxazol-4-yl)-2-(pyrrol-1-yl)phenyl)sulfamoyl)-4-cyclopropylbenzoic acid] cannot be ordered by IC50: under 500 nM for the first, under 500 nM for the second.

`Cc1sncc1-c1ccc(-n2cccc2)c(NS(=O)(=O)c2cc(C(=O)O)ccc2C2CC2)c1` [Example 150, 4-cyclopropyl-3-(N-(5-(5-methylisothiazol-4-yl)-2-(pyrrol-1-yl)phenyl)sulfamoyl)benzoic acid] and `N#Cc1cc(NS(=O)(=O)c2cc(C(=O)O)ccc2C2CC2)c(-c2cccc(F)c2)cc1Cl` [Example 133, 3-(N-(5-chloro-4-cyano-3′-fluoro-[1,1′-biphenyl]-2-yl)sulfamoyl)-4-cyclopropylbenzoic acid] cannot be ordered by IC50: under 500 nM for the first, under 500 nM for the second.

`N#Cc1cc(NS(=O)(=O)c2cc(C(=O)O)ccc2C2CC2)c(-c2ncccn2)cc1Cl` [Example 179, 3-(N-(4-chloro-5-cyano-2-(pyrimidin-2-yl)phenyl)sulfamoyl)-4-cyclopropylbenzoic acid] and `N#Cc1cc(NS(=O)(=O)c2cc(C(=O)O)ccc2C2CC2)c(-c2ccsn2)cc1F` [Example 181, 3-(N-(5-cyano-4-fluoro-2-(isothiazol-3-yl)phenyl)sulfamoyl)-4-cyclopropylbenzoic acid] cannot be ordered by IC50: under 500 nM for the first, under 500 nM for the second.

`CCc1ccc(C(=O)O)cc1S(=O)(=O)Nc1cc(-n2cnnn2)ccc1-c1cccc(F)c1` [Example 53, 4-ethyl-3-(N-(3′-fluoro-4-(tetrazol-1-yl)-[1,1′-biphenyl]-2-yl)sulfamoyl) benzoic acid] and `CCc1ccc(C(=O)O)cc1S(=O)(=O)Nc1cc(C(F)(F)F)ccc1-c1cccn1C` [Example 73, 4-ethyl-3-(N-(2-(1-methyl-pyrrol-2-yl)-5-(trifluoromethyl)phenyl)sulfamoyl)benzoic acid] cannot be ordered by IC50: under 500 nM for the first, under 500 nM for the second.
